From the supplement of paper PMC11451515

System: SEM cells
Assay: cell viability relative to DMSO control; higher = less cytotoxic
Conditions: 48 h
Summary of the method: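 Viability is a per-plate percentage relative to DMSO wells, with cell-free wells as background. CellTiter-Glo One luminescence was read after 48 h at 37°C on 1536-well plates (5 μl) of NOMO1 or SEM (500 cells/well) or P12-Ichikawa (1000 cells/well) leukemia cells. The cells had been adapted for at least four passages in each medium and pin-dosed with library compounds in DMSO from 47 μM to 0.79 nM in 11 threefold steps.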

[1] = HPLM + 10% dialyzed FBS, 0.000781 µM
[2] = HPLM + 10% dialyzed FBS, 0.00234 µM
[3] = HPLM + 10% dialyzed FBS, 0.00702 µM
[4] = HPLM + 10% dialyzed FBS, 0.0211 µM
[5] = HPLM + 10% dialyzed FBS, 0.0632 µM
[6] = HPLM + 10% dialyzed FBS, 0.19 µM
[7] = HPLM + 10% dialyzed FBS, 0.569 µM
[8] = HPLM + 10% dialyzed FBS, 1.71 µM
[9] = HPLM + 10% dialyzed FBS, 5.12 µM
[10] = HPLM + 10% dialyzed FBS, 15.4 µM
[11] = HPLM + 10% dialyzed FBS, 46.1 µM
[12] = RPMI 5 mM glucose + 10% FBS, 0.000781 µM
[13] = RPMI 5 mM glucose + 10% FBS, 0.00234 µM
[14] = RPMI 5 mM glucose + 10% FBS, 0.00702 µM
[15] = RPMI 5 mM glucose + 10% FBS, 0.0211 µM
[16] = RPMI 5 mM glucose + 10% FBS, 0.0632 µM
[17] = RPMI 5 mM glucose + 10% FBS, 0.19 µM
[18] = RPMI 5 mM glucose + 10% FBS, 0.569 µM
[19] = RPMI 5 mM glucose + 10% FBS, 1.71 µM
[20] = RPMI 5 mM glucose + 10% FBS, 5.12 µM
[21] = RPMI 5 mM glucose + 10% FBS, 15.4 µM
[22] = RPMI 5 mM glucose + 10% FBS, 46.1 µM
[23] = RPMI 5 mM glucose + 10% dialyzed FBS, 0.000781 µM
[24] = RPMI 5 mM glucose + 10% dialyzed FBS, 0.00234 µM
[25] = RPMI 5 mM glucose + 10% dialyzed FBS, 0.00702 µM
[26] = RPMI 5 mM glucose + 10% dialyzed FBS, 0.0211 µM
[27] = RPMI 5 mM glucose + 10% dialyzed FBS, 0.0632 µM
[28] = RPMI 5 mM glucose + 10% dialyzed FBS, 0.19 µM
[29] = RPMI 5 mM glucose + 10% dialyzed FBS, 0.569 µM
[30] = RPMI 5 mM glucose + 10% dialyzed FBS, 1.71 µM
[31] = RPMI 5 mM glucose + 10% dialyzed FBS, 5.12 µM
[32] = RPMI 5 mM glucose + 10% dialyzed FBS, 15.4 µM
[33] = RPMI 5 mM glucose + 10% dialyzed FBS, 46.1 µM

## CCCCCCNC(=O)N1\C=C(F)/C(=O)NC1=O
[1]
  cell viability: 126%
[2]
  cell viability: 104%
[3]
  cell viability: 113%
[4]
  cell viability: 118%
[5]
  cell viability: 121%
[6]
  cell viability: 118%
[7]
  cell viability: 124%
[8]
  cell viability: 110%
[9]
  cell viability: 121%
[10]
  cell viability: 108%
[11]
  cell viability: 83.1%
[12]
  cell viability: 115%
[13]
  cell viability: 118%
[14]
  cell viability: 128%
[15]
  cell viability: 117%
[16]
  cell viability: 134%
[17]
  cell viability: 117%
[18]
  cell viability: 112%
[19]
  cell viability: 129%
[20]
  cell viability: 118%
[21]
  cell viability: 97.9%
[22]
  cell viability: 73.6%
[23]
  cell viability: 126%
[24]
  cell viability: 108%
[25]
  cell viability: 116%
[26]
  cell viability: 129%
[27]
  cell viability: 120%
[28]
  cell viability: 107%
[29]
  cell viability: 99.8%
[30]
  cell viability: 101%
[31]
  cell viability: 106%
[32]
  cell viability: 80.5%
[33]
  cell viability: 46.4%

## NC(=O)c1cccc(-c2cc(Nc3ccc(OC(F)(F)F)cc3)ncn2)c1
[1]
  cell viability: 82.4%
[2]
  cell viability: 92.7%
[3]
  cell viability: 95.5%
[4]
  cell viability: 91.9%
[5]
  cell viability: 87.2%
[6]
  cell viability: 111%
[7]
  cell viability: 101%
[8]
  cell viability: 106%
[9]
  cell viability: 87.8%
[10]
  cell viability: 82%
[11]
  cell viability: 69.3%
[12]
  cell viability: 105%
[13]
  cell viability: 116%
[14]
  cell viability: 106%
[15]
  cell viability: 111%
[16]
  cell viability: 104%
[17]
  cell viability: 117%
[18]
  cell viability: 112%
[19]
  cell viability: 111%
[20]
  cell viability: 113%
[21]
  cell viability: 101%
[22]
  cell viability: 69.1%
[23]
  cell viability: 80%
[24]
  cell viability: 91.6%
[25]
  cell viability: 96.5%
[26]
  cell viability: 91.8%
[27]
  cell viability: 95%
[28]
  cell viability: 98.2%
[29]
  cell viability: 96.1%
[30]
  cell viability: 104%
[31]
  cell viability: 84.8%
[32]
  cell viability: 68.9%
[33]
  cell viability: 54.1%

## CN1CCc2c(c3ccccc3n2Cc2ccc(C(=O)NO)cc2)C1
[1]
  cell viability: 81.4%
[2]
  cell viability: 76.1%
[3]
  cell viability: 79.7%
[4]
  cell viability: 95.4%
[5]
  cell viability: 84.2%
[6]
  cell viability: 79.2%
[7]
  cell viability: 70.7%
[8]
  cell viability: 83.9%
[9]
  cell viability: 88.3%
[10]
  cell viability: 25.2%
[11]
  cell viability: 11.7%
[12]
  cell viability: 87.3%
[13]
  cell viability: 78.9%
[14]
  cell viability: 88.5%
[15]
  cell viability: 92.9%
[16]
  cell viability: 84.8%
[17]
  cell viability: 78%
[18]
  cell viability: 57.5%
[19]
  cell viability: 97.3%
[20]
  cell viability: 88.3%
[21]
  cell viability: 38.6%
[22]
  cell viability: 26.2%
[23]
  cell viability: 76.7%
[24]
  cell viability: 60.4%
[25]
  cell viability: 67%
[26]
  cell viability: 78.4%
[27]
  cell viability: 69.5%
[28]
  cell viability: 61.2%
[29]
  cell viability: 58.1%
[30]
  cell viability: 77.2%
[31]
  cell viability: 94.6%
[32]
  cell viability: 32%
[33]
  cell viability: 22.6%

## COc1c(Cl)cc2c([nH]c3cnccc32)c1NC(=O)c1cccnc1C
[1]
  cell viability: 100%
[2]
  cell viability: 116%
[3]
  cell viability: 119%
[4]
  cell viability: 92%
[5]
  cell viability: 114%
[6]
  cell viability: 103%
[7]
  cell viability: 118%
[8]
  cell viability: 108%
[9]
  cell viability: 107%
[10]
  cell viability: 103%
[11]
  cell viability: 84.8%
[23]
  cell viability: 93.6%
[24]
  cell viability: 95.3%
[25]
  cell viability: 108%
[26]
  cell viability: 97.5%
[27]
  cell viability: 110%
[28]
  cell viability: 107%
[29]
  cell viability: 101%
[30]
  cell viability: 125%
[31]
  cell viability: 106%
[32]
  cell viability: 105%
[33]
  cell viability: 90.1%

## Cc1c(N)nc([C@H](CC(N)=O)NC[C@@H](N)C(N)=O)nc1C(=O)N[C@H](C(=O)N[C@@H](C)[C@H](O)[C@@H](C)C(=O)N[C@@H](C(=O)NCCc1nc(-c2nc(C(=O)NCCC[S+](C)C)cs2)cs1)[C@@H](C)O)C(O[C@H]1O[C@H](CO)[C@H](O)[C@@H](O)[C@H]1O[C@H]1O[C@H](CO)[C@@H](O)[C@H](OC(N)=O)[C@@H]1O)c1c[nH]cn1 (stereo not given in full)
[1]
  cell viability: 110%
[2]
  cell viability: 115%
[3]
  cell viability: 115%
[4]
  cell viability: 113%
[5]
  cell viability: 101%
[6]
  cell viability: 128%
[7]
  cell viability: 121%
[8]
  cell viability: 82.9%
[9]
  cell viability: 61.9%
[10]
  cell viability: 67.2%
[11]
  cell viability: 74.2%
[12]
  cell viability: 99.2%
[13]
  cell viability: 109%
[14]
  cell viability: 107%
[15]
  cell viability: 114%
[16]
  cell viability: 89.7%
[17]
  cell viability: 121%
[18]
  cell viability: 113%
[19]
  cell viability: 61.8%
[20]
  cell viability: 64.9%
[21]
  cell viability: 29.7%
[22]
  cell viability: 17.7%
[23]
  cell viability: 89.6%
[24]
  cell viability: 110%
[25]
  cell viability: 99.3%
[26]
  cell viability: 111%
[27]
  cell viability: 88.4%
[28]
  cell viability: 113%
[29]
  cell viability: 91.5%
[30]
  cell viability: 81.8%
[31]
  cell viability: 54.3%
[32]
  cell viability: 16.9%
[33]
  cell viability: 14.8%

## COc1ccccc1[C@H](c1cccc2ccccc12)[C@@](C)(C#N)C(=O)N1CCC(c2cccc(C(F)(F)F)c2)CC1
[1]
  cell viability: 87.3%
[2]
  cell viability: 103%
[3]
  cell viability: 96.6%
[4]
  cell viability: 97.4%
[5]
  cell viability: 107%
[6]
  cell viability: 103%
[7]
  cell viability: 108%
[8]
  cell viability: 99.2%
[9]
  cell viability: 89.3%
[10]
  cell viability: 54.4%
[11]
  cell viability: 39.7%
[12]
  cell viability: 92.3%
[13]
  cell viability: 104%
[14]
  cell viability: 102%
[15]
  cell viability: 107%
[16]
  cell viability: 102%
[17]
  cell viability: 114%
[18]
  cell viability: 105%
[19]
  cell viability: 119%
[20]
  cell viability: 111%
[21]
  cell viability: 84.7%
[22]
  cell viability: 56%
[23]
  cell viability: 83.3%
[24]
  cell viability: 91.5%
[25]
  cell viability: 100%
[26]
  cell viability: 99.4%
[27]
  cell viability: 90.8%
[28]
  cell viability: 104%
[29]
  cell viability: 102%
[30]
  cell viability: 87.8%
[31]
  cell viability: 93.9%
[32]
  cell viability: 76.6%
[33]
  cell viability: 54.9%

## Cc1cc(Nc2ncc3c(n2)N(C)C(=O)N(c2cc(NC(=O)c4cccc(C(F)(F)F)c4)ccc2C)C3)n(C)n1
[1]
  cell viability: 88%
[2]
  cell viability: 105%
[3]
  cell viability: 101%
[4]
  cell viability: 88.2%
[5]
  cell viability: 115%
[6]
  cell viability: 82.3%
[7]
  cell viability: 50.1%
[8]
  cell viability: 17.8%
[9]
  cell viability: 10.8%
[10]
  cell viability: 5.81%
[11]
  cell viability: 3.72%
[12]
  cell viability: 101%
[13]
  cell viability: 114%
[14]
  cell viability: 111%
[15]
  cell viability: 95%
[16]
  cell viability: 116%
[17]
  cell viability: 79.4%
[18]
  cell viability: 40.2%
[19]
  cell viability: 11.9%
[20]
  cell viability: 7.97%
[21]
  cell viability: 5.5%
[22]
  cell viability: 3.3%
[23]
  cell viability: 108%
[24]
  cell viability: 117%
[25]
  cell viability: 114%
[26]
  cell viability: 93.8%
[27]
  cell viability: 128%
[28]
  cell viability: 81.3%
[29]
  cell viability: 41%
[30]
  cell viability: 11.5%
[31]
  cell viability: 6.61%
[32]
  cell viability: 4.65%
[33]
  cell viability: 2.51%
